Data taken from patent US9067966B2, “Lupeol-type triterpene derivatives as antivirals” (priority 2009, dated 2015).

How the values were obtained:
Type in all cases: cell-based
in vitro [1] = conditions: human
Protocol: (§1) Compound was dissolved in DMSO to make 30 mM stock. Then the 30 mM stock was further diluted to 4 mM using DMSO. The 4 mM stock was used as the top concentration to carry out an 11-point, 3-fold dilution scheme using DMSO in a 96-well plate to make the compound dose plate. Compounds in the dose plate were transferred to a new 96-well plate (working plate) containing PBS with 0.05% pluronic acid. From this working plate the compound solution was transferred to the 384-well assay plates.
For the cytotoxicity assay, the same amount of PBMC cells as in the antivirus assay but without the HIV-1 virus, was added to the cytotoxicity plates. The cytotoxicity was measured by a CellTiter-Glo cell viability assay (Promega).

HIV-1 strain NL4-3 [2] = test: Anti-HIV-1 luciferase indicator assay in PBMC cells, NL4-3; conditions: Human immunodeficiency virus 1, NL43, viral strain NL4-3
Protocol: as §1
(§2) Control compounds for cpd control wells were prepared and added to assay plates individually.
(§3) PBMC cells were isolated from human whole blood using Histopaque-1077 (Sigma, #10771) and frozen down and kept in liquid nitrogen tank. Two days before the assay PBMC was recovered and cultured in medium containing PHA-P (Sigma, #L1668). On the day of assay PBMC cells were pelleted down and resuspended in medium containing IL-2 (Sigma, #I7908), then the cells were mixed with HIV-1 strain NL4-3, MOI=0.01 (or IIIB, or CNHN24) and the cell/virus mixture was added to the aforementioned antivirus assay plates. […] The expression level of luciferase was related to HIV-1 infectivity and was measured by Bright-Glo kit (Promega).

in vitro [3] = conditions: human, CC50
Protocol: as §1, with “mM stock is further diluted” for “mM stock was further diluted”, “this working plate, the compound” for “this working plate the compound”
For cytotoxicity assay the same amount of MT2 cells as in antivirus assay but without HIV-1 virus were added to the cytotoxicity plates. The cytotoxicity was measured by Cell Titer-Glo cell viability assay (Promega).

HIV-1 strain CNHN24 [4] = test: Anti-HIV-1 luciferase indicator assay in PBMC cells, CNHN24; conditions: Human immunodeficiency virus 1, viral strain CNHN24
Protocol: as §1, §2, §3

HIV-1 strain NL4-3 [5] = test: Anti-HIV-1 luciferase indicator assay in MT2 cells, NL4-3; conditions: viral strain NL4-3
Protocol: as §1, with “mM stock is further diluted” for “mM stock was further diluted”, “this working plate, the compound” for “this working plate the compound”
(§4) Control compounds used in compound control wells were prepared and added to assay plates individually.
(§5) MT2 cells were mixed with HIV-1 strain NL4-3 (or IIIB, or CNHN24) and the cell/virus mixture was added to the aforementioned antivirus assay plates. After incubation in a 37° C., 5% CO2 incubator, the supernatant from the assay plate was transferred to a new 384-well plate containing the indicator cells with a fire fly luciferase gene under HIV-1 LTR control. The expression level of luciferase was related to HIV-1 infectivity and was measured by Bright-Glo kit (Promega).
(§6) Therapeutic index (TI) was determined by taking ratio of CC50/IC50

HIV-1 strain IIIB [6] = test: Anti-HIV-1 luciferase indicator assay in MT2 cells, IIIB; conditions: viral strain II B
Protocol: as §1, with “mM stock is further diluted” for “mM stock was further diluted”, “this working plate, the compound” for “this working plate the compound”
as §4, §5, §6

HIV-1 strain IIIB [7] = test: Anti-HIV-1 luciferase indicator assay in PBMC cells, IIIB; conditions: Human immunodeficiency virus 1, IIIB, viral strain II B
Protocol: as §1, §2, §3

HIV-1 strain CNHN24 [8] = test: Anti-HIV-1 luciferase indicator assay in MT2 cells, CNHN24; conditions: viral strain CNHN24
Protocol: as §1, with “mM stock is further diluted” for “mM stock was further diluted”, “this working plate, the compound” for “this working plate the compound”
as §4, §5, §6

**Q.** For `C=C(C)[C@@H]1CC[C@]2(C(=O)N[C@@H]3C[C@H](C(=O)N4CCCC4)C3(C)C)CC[C@]3(C)[C@H](CC[C@@H]4[C@@]5(C)CC[C@H](OC(=O)CC(C)(C)C(=O)O)C(C)(C)[C@@H]5CC[C@]43C)[C@@H]12` [Example 45], which CC50 (in vitro [1]) is on record?
**A.** > 20 µM

**Q.** And the IC50 (HIV-1 strain NL4-3 [2])?
**A.** 17 nM

**Q.** And the CC50 (in vitro [3])?
**A.** 20 µM

**Q.** What about the IC50 (HIV-1 strain CNHN24 [4]) of the same compound?
**A.** 22 nM

**Q.** And the IC50 (HIV-1 strain NL4-3 [5]; Human immunodeficiency virus 1, NL43, MT2, MT2 cells, read-out: IC50)?
**A.** 17 nM

**Q.** And the “TI / Safety Index (CC50/IC50)” value (HIV-1 strain NL4-3 [5]; MT2 cells)?
**A.** 1177

**Q.** And the IC50 (HIV-1 strain IIIB [6]; Human immunodeficiency virus 1, IIIB, MT2, MT2 cells, read-out: IC50)?
**A.** 25 nM

**Q.** What about the “TI / Safety Index (CC50/IC50)” value (HIV-1 strain IIIB [6]; MT2 cells) of the same compound?
**A.** 800

**Q.** What about the IC50 (HIV-1 strain IIIB [7]) of the same compound?
**A.** 25 nM

**Q.** And the IC50 (HIV-1 strain CNHN24 [8]; Human immunodeficiency virus 1, MT2, MT2 cells, read-out: IC50)?
**A.** 22 nM

**Q.** And the “TI / Safety Index (CC50/IC50)” value (HIV-1 strain CNHN24 [8]; MT2 cells)?
**A.** 800
